We go through 15 compounds from US11939314B2, “Quinolin-2-one derivatives” (MERCK PATENT GMBH, priority 2016, dated 2024).

Structures are written as SMILES.

Assay [1] deals with GISTs with primary mutation. As to conditions: secondary resistance emerges in almost all tumors; cited from earlier work.
Another assay deals with T1, c-Kit(V654A) (Homo sapiens, UniProt P10721, V654A).
T1 construct: amino acids 544-end containing the V654A mutation; GST (N)
As to the kind of experiment: c-Kit(V654A) assay. The class given is biochemical. The following applies: recombinant human c-Kit aa 544-end, 200 μM ATP, 1.4E-06 means 1.4×10^−6, read-out: Inhibition (IC50) of c-KIT (V654A). The procedure, abridged: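 Radiometric filter-binding read-out: substrate 33P incorporation counted by scintillation after P30 filtermat washes in 75 mM phosphoric acid and methanol. Enzyme: N-GST recombinant human c-Kit aa 544-end carrying V654A.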

Another assay addresses T2, PDGFRalpha(V561D) (Homo sapiens, UniProt P16234, V561D).
T2 construct: recombinant human PDGFRalpha, amino acids 550end containing the V561 D mutation; 6His (N)
Kind of assay: PDGFRalpha(V561D) assay. The class given is biochemical. As to conditions: recombinant human PDGFRalpha aa 550-end, 200 μM ATP, 1.4E-06 means 1.4×10^−6, read-out: Inhibition (IC50) of PDGFRα (V561D). The procedure, abridged: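 Radiometric filter-binding assay: substrate phosphorylation by recombinant N-His-tagged human PDGFRα 550-end V561D was quenched with 3% phosphoric acid after 40 min at room temperature, then counted.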

T2 sequence (P16234 550-1089 V561D): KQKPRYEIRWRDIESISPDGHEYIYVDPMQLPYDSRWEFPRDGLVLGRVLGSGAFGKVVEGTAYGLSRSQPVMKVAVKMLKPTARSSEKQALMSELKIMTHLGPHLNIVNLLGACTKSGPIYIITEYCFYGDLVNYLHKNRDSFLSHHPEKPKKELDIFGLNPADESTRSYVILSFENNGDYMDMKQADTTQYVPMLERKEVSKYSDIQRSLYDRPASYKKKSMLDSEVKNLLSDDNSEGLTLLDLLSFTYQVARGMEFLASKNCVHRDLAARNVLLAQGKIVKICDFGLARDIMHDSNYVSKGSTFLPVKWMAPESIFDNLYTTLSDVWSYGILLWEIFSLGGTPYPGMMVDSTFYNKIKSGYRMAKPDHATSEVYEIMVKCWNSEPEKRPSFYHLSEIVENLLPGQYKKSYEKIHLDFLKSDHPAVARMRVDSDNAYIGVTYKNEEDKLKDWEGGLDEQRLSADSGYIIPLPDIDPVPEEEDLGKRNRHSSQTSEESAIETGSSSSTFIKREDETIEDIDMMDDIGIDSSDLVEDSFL
T1 sequence (P10721 544-976 V654A): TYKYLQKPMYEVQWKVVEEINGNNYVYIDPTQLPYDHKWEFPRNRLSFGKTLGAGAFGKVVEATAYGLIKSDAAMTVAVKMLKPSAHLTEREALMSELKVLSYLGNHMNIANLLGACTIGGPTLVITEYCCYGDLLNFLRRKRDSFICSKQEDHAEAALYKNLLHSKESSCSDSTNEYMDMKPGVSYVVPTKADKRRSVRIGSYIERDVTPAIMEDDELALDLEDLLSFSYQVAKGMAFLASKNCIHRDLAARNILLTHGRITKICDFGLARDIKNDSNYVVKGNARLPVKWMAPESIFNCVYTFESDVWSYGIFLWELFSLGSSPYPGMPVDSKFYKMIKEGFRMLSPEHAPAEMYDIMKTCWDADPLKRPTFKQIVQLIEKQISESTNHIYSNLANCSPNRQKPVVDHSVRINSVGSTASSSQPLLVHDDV

On to `Cc1ccc(NC(=O)c2ccc(CN3CCN(C)CC3)cc2)cc1Nc1nccc(-c2cccnc2)n1` [Imatinib, imatinib], for which the initial response rate in assay [1] is around 70%.
Broadly, the IC50 is the concentration needed to halve the response being measured. With `O=C(c1ccc(-n2cc(-c3cc4cc(F)ccc4[nH]c3=O)nn2)cc1)N1CCC(OCCN2CCOCC2)C1` (centres unmarked) [A209, 6-fluoro-3-(1-{4-[3-(2-morpholin-4-yl-ethoxy)-pyrrolidine-1-carbonyl]-phenyl}-1H-[1,2,3]triazol-4-yl)-1H-quinolin-2-one], the figures for the 50% inhibitory concentration (IC50) at c-Kit(V654A) and at PDGFRalpha(V561D) were 53 nM and 580 nM, respectively.
Take `CN1CCN(C(=O)c2ccc(-n3cc(-c4cc5cc(F)ccc5[nH]c4=O)nn3)cc2)CC1=O` [A92, 6-fluoro-3-{1-[4-(4-methyl-3-oxo-piperazine-1-carbonyl)-phenyl]-1H-[1,2,3]triazol-4-yl}-1H-quinolin-2-one]: the IC50 amounted to 21 nM at c-Kit(V654A) and 5.9 nM at PDGFRalpha(V561D).
In the same order, the values of `O=C(c1ccc(-n2cc(-c3cc4cc(F)ccc4[nH]c3=O)nn2)cc1)N1CC[C@@H](O)C1` [A181, 6-fluoro-3-{1-[4-((R)-3-hydroxy-pyrrolidine-1-carbonyl)-phenyl]-1H-[1,2,3]triazol-4-yl}-1H-quinolin-2-one] are 8.5 nM and 0.71 nM.
In the same order, the values of `O=C(c1ccc(-n2cc(-c3cc4ccncc4[nH]c3=O)nn2)cc1)N1CCOCC1` [A29, 3-{1-[4-(morpholine-4-carbonyl)-phenyl]-1H-[1,2,3]triazol-4-yl}-1H-[1,7]naphthyridin-2-one] are 150 nM and 23 nM.
In the same order, the values of `O=C(c1ccc(-n2cc(-c3cc4ccccc4[nH]c3=O)nn2)cc1)N1CCNCC1` [A50, 3-{1-[4-(piperazine-1-carbonyl)-phenyl]-1H-[1,2,3]triazol-4-yl}-1H-quinolin-2-one] are 24 nM and 14 nM.
For the compound `Cc1cc(C(=O)N2CCOCC2)ccc1-n1cc(-c2cc3ccccc3[nH]c2=O)nn1` [A35, 3-{1-[2-methyl-4-(morpholine-4-carbonyl)-phenyl]-1H-[1,2,3]triazol-4-yl}-1H-quinolin-2-one], the half-maximal inhibitory concentration (IC50) at c-Kit(V654A) is 650 nM; at PDGFRalpha(V561D) it was 49 nM.
In the same order, the values of `O=C(c1ccc(-n2cc(-c3cc4ccc(Cl)cc4[nH]c3=O)nn2)cc1)N1CCNCC1` [A126, 7-chloro-3-{1-[4-(piperazine-1-carbonyl)-phenyl]-1H-[1,2,3]triazol-4-yl}-1H-quinolin-2-one] are 19 nM and 42 nM.
In the same order, the values of `O=C(c1ccc(-n2cc(-c3cc4cc(F)ccc4[nH]c3=O)nn2)cc1)N1CCOCC1` [A1, 6-fluoro-3-{1-[4-(morpholine-4-carbonyl)-phenyl]-1H-[1,2,3]triazol-4-yl}-1H-quinolin-2-one] are 6 nM and 2 nM.
In the same order, the values of `CN(C)C(=O)c1ccc(-n2cc(-c3cc4ccncc4[nH]c3=O)nn2)cc1` [A42, N,N-dimethyl-4-[4-(2-oxo-1,2-dihydro-[1,7]naphthyridin-3-yl)-[1,2,3]triazol-1-yl]-benzamide] are 84 nM and 38 nM.
With `O=C(c1ccc(-n2cc(-c3cc4cc(F)ccc4[nH]c3=O)nn2)cc1)N1CCNC[C@H]1CO` [A315, 6-fluoro-3-{1-[4-((S)-2-hydroxymethyl-piperazine-1-carbonyl)-phenyl]-1H-[1,2,3]triazol-4-yl}-1H-quinolin-2-one], the figures for the IC50 at c-Kit(V654A) and at PDGFRalpha(V561D) were 200 nM and 1400 nM, respectively.
In the same order, the values of `N#Cc1ccc2cc(-c3cn(-c4ccc(C(=O)N5CCOCC5)cc4)nn3)c(=O)[nH]c2c1` [A177, 3-{1-[4-(morpholine-4-carbonyl)-phenyl]-1H-[1,2,3]triazol-4-yl}-2-oxo-1,2-dihydro-quinoline-7-carbonitrile] are 170 nM and 57 nM.
In the same order, the values of `CN1CCN(C(=O)c2ccc(-n3cc(-c4cc5ccccc5[nH]c4=O)cn3)cc2)CC1` [A74, 3-{1-[4-(4-methyl-piperazine-1-carbonyl)-phenyl]-1H-pyrazol-4-yl}-1H-quinolin-2-one] are 8 nM and 6 nM.
In the same order, the values of `CN(C)C1CCN(C(=O)c2ccc(-n3cc(-c4cc5ccccc5[nH]c4=O)nn3)cc2)CC1` [A61, 3-{1-[4-(4-dimethylamino-piperidine-1-carbonyl)-phenyl]-1H-[1,2,3]triazol-4-yl}-1H-quinolin-2-one] are 29 nM and 11 nM.
In the case of `CO[C@@H]1CC[C@H](Oc2ccc(-n3cc(-c4cc5cc(Cl)ccc5[nH]c4=O)nn3)cc2)C1` (stereo in doubt) [A356, 6-chloro-3-{1-[4-((1S,3R)-3-methoxy-cyclopentyloxy)-phenyl]-1H-[1,2,3]triazol-4-yl}-1H-quinolin-2-one], the results for the IC50 at c-Kit(V654A) and on PDGFRalpha(V561D) were 96 nM and 150 nM, respectively.
